Results taken from patent US10799590B2, “Compositions containing a bitter tastant and at least one sophorolipid, and methods of reducing bitter taste attributed to a bitter tastant in an edible composition” (The United States of America, as Represented by the …, priority 2015, dated 2020).

System: cultured human fungiform taste papillae cells (HBO cells)
Experiment: Calcium imaging of cultured human fungiform taste papillae (HBO) cells: response frequency, estimation of sweet potency
Type: cell-based
Excerpt: In vitro cell-based assay of sweet property. Establishment and maintenance of cultures of human fungiform taste papillae cells (HBO cells): We previously established the current proprietary protocol (Ozdener, H., et al., Chem. Senses, 31(3): 279-90 (2006); Ozdener, M. H., et al., Chem. Senses, 36(7): 601-12 (2011); Ozdener, H., et al., Isolation and culture of human fungiform taste papillae cells, J. Vis. Exp., 2012 May 17;(63):e3730) which allowed us to culture human fungiform taste papillae cells retaining their physiological and molecular characteristics for more than a year. […] The human fungiform taste papillae cells were cultured according to protocols that we have published (Ozdener et al. 2006, Ozdener et al. 2011). Human fungiform taste papillae were removed and immediately placed into an isolation solution followed by enzymatic digestion. Digested fungiform papillae were then gently minced with a surgical razor and seeded on collagen type-1 coated coverslips and incubated at 36° C. in a humidified environment containing 5% CO2. The fungiform taste papillae cells were cultured in Iscove's Modified Dulbecco's medium containing 10% fetal bovine serum, 1:5 ratio of MCDB (Molecular, Cellular, and Developmental Biology) 153 medium, and a triple cocktail of antibiotics (100 U/mL/100 μg/mL, penicillin/streptomycin, and 0.5 μg/mL fungizone). Culture medium was replaced every 5-7 days by one-third of fresh culture medium. Human fungiform taste papillae cells have been maintained in culture for a period of more than 1 year without loss of viability and with retention of the molecular and biochemical properties of acutely isolated taste cells (Ozdener et al., 2011). Calcium imaging: Cultured taste cells grown for 3-4 days glass coverslips which were loaded for 30-60 min with the calcium sensitive dye fura-2 by incubating the cells in Ringer solution (145 mM NaCl, 5 mM KCl, 1 mM MgCl2, 1 mM CaCl2, 1 mM Na-pyruvate, 20 mM Hepes-Na and Cellobiose 15 mM, pH 7.2 with osmolarity adjusted to 300-310 by 5M NaCl) supplemented with […] (Molecular Probes Inc., Eugene, Oreg.) and 10 mg/ml Pluronic® F127 (Molecular Probes Inc.). Coverslips were then placed in a recording chamber and continuously bathed with Ringer solution superfusion. Stimuli were dissolved in Ringer and then pH and osmolarity readjusted if needed. Cells were exposed to sweet ([…]), bitter mixture (PTC (phenylthiocarbamide)) 2mM+Salicin 5 mM+Denatonium 2 mM), guaifenesin (GF, 3 mM) and acetaminophen (APAP, 3 mM), and various sophorolipids stimuli: sophorose, sophorolipid palmitic acid, sophorolipid stearic acid, sophorolipid oleic acid. […]

With `OC[C@H]1O[C@@H](O[C@@H]2[C@@H](O)[C@H](O)[C@@H](CO)O[C@H]2O)[C@H](O)[C@@H](O)[C@@H]1O` [Sophorose, 2-O-β-D-glucopyranosyl-β-D glucopyranose] the “%-responsive cells” value (cultured human taste cells, concentration 292 uM) was 16.05% and the “Concentration adjusted response frequency” value (tested at 292 uM, adjusted against sucralose 5 mM) was 274.89.
